Legend:
Assay type in all cases: cell-based
[1] = test system: phosphorylated CREB in differentiated PC12 cells; test: nuclear p-CREB immunostaining in differentiated PC12 cells; settings: 1 μM, 24 h
Description: (§1) Differentiated PC12 cells and mouse embryonic cortical neurons (E17, DIV14) were treated with mock, dextran, alginate, HA-GAGR, or midi-GAGR (1 μM) for 24 h and fixed in 3.7% paraformaldehyde. The fixed cells and neurons were immunostained with antibodies against α-tubulin and phosopho-CREB (p-CREB) along with DAPI (nucleus).

[2] = test system: phosphorylated CREB in mouse embryonic cortical neurons; test: nuclear p-CREB immunostaining in embryonic cortical neurons (Example 2); settings: 1 μM, 24 h
Description: as §1

[3] = test system: rat embryonic cortical neurons exposed to 25 μM 4-HNE; test: neuritic atrophy caused by 4-HNE in cortical neurons; settings: pre-treatment 2 days (1 μM; ascorbate 100 μM), then 25 μM 4-HNE 1 day
Description: Rat embryonic cortical neurons were treated with mock (FIG. 11C), 1 μM HA-GAGR (high acyl gellan gum), 1 μM dextran, 100 μM ascorbate, or 1 μM midi-GAGR (FIG. 13A) for 2 days and then with 25 μM 4-hydroxynonenal (4-HNE), a lipid peroxide, for 1 day. After fixation, neurons were immunostained with anti-synaptophysin antibody (green) and rhodamine-phalloidin (actin: red). Scholl ring analysis was performed.

[4] = test system: mouse cortical neurons (E17, DIV5); test: LIVE/DEAD assay, pre-treatment of mouse cortical neurons before 4HNE, H2O2 or Aβ42; settings: pre-treatment 24 h (same concentrations)
Text: The protective effect of polysaccharides on primary cortical neurons from 4HNE, H2O2, and Aβ42 peptide (Sigma) was examined using LIVE/DEAD® Viability/Cytotoxicity Assay Kit (Life Technologies). Female pregnant mice (BALB/C, E17, Charles River Laboratories International, Inc.) or female pregnant SD rats (E17, bred in house) were anesthetized and dissected to obtain 8-9 embryos per animal. Cortical neurons were isolated from embryonic brains and differentiated on poly-L-lysine-coated coverslips in B27/neurobasal medium. For drug treatment before free radical treatment, mouse cortical neurons (5 days in vitro [DIV5]) were treated with vehicle (H2O), 1 μM of 5 kD dextran (Sigma), alginate (Sigma), midi-GAGR, 0.01 μM of high acyl gellan gum (HA-GAGR, CPKelco Co.), or 0.1 μM of LA-GAGR for 24 h and then treated with 10 μM 4HNE or 50 μM H2O2 for 24 h, or 2 μM Aβ42 peptide for 48 h prior to viability/cytotoxicity assay. For drug co-treatment with free radicals, rat cortical neurons (DIV5) were treated with 1 μM of dextran, alginate, or midi-GAGR, 0.01 μM of HA-GAGR, or 0.1 μM of LA-GAGR along with either 10 μM 4HNE (24 h) or 2 μM Aβ42 peptide (48 h). To examine the extent to which midi-GAGR-mediated neuroprotection depends on FGFR1, rat cortical neurons (E17, DIV5) were pre-treated with 4 μM SU5402 (Sigma) for 6 h and treated with 10 μM 4HNE and either vehicle or 1 μM midi-GAGR for 24 h prior to cell viability/cytotoxicity assay. As controls, neurons were treated with SU5402, midi-GAGR, 4HNE, 4HNE plus midi-GAGR, or SU5402 plus midi-GAGR.
For cell viability/cytotoxicity measurement, neurons on glass coverslips were incubated in 1×PBS containing 2 μM calcein AM (live cells: green) and 4 μM ethidium homodimer-1 (dead cells: red) for 10 min at 37° C. Immediately thereafter, neurons were imaged by 10×objective using a fluorescence Olympus IX71 microscope (Olympus America Inc., Center Valley, Pa.) and, for the acquisition of high-quality images, using TCS SP5 multi-photon laser scanning confocal microscope.
Midi-GAGR attenuated neurite atrophy caused by free reactive radicals. It is now shown herein that midi-GAGR protect neurons from the death caused by free radical insults. The extent to which midi-GAGR protects the primary culture of rodent cortical neurons from 4HNE and H2O2 was determined. In addition to the radicals, amyloid β peptide (Aβ42) was also tested. Aβ42 peptide is a major causative factor that causes oxidative stress and neuron death. Mouse cortical neurons (E17, DIV5) were treated with 10 μM 4HNE (24 h), 50 μM H2O2 (24 h), or 2 μM Aβ42 peptide (48 h) after the treatment of the neurons with vehicle (H2O), midi-GAGR (1 μM), dextran (1 μM), alginate (1 μM), LA-GAGR (0.1 μM), or HA-GAGR (0.01 μM) for 24 h. The concentrations of 4HNE, H2O2, and Aβ42 peptide were chosen according to their patho-physiological concentrations. The concentrations of LA-GAGR and HA-GAGR were chosen because, within the same volume, the total numbers of sugar units in the polysaccharides at the concentrations are close to that of 1 μM midi-GAGR. The viability of neurons was assessed using LIVE/DEAD® Viability/Cytotoxicity Assay Kit in which membrane-permeant calcein AM is cleaved by esterase in live cells, thus yielding green fluorescence, and membrane-impermeant ethidium homodimer-1 stains the nucleic acids of plasma membrane-compromised cells with red fluorescence. The numbers of green (live) and red (dead) neurons in each condition were counted using Metamorph. Although the intensities of green fluorescent signals in neurons treated with either free radicals or Aβ42 peptide were weak, the neurons were included in the counting. About 8-9% of vehicle-treated neurons died during the process of live/dead cell assay (FIGS. 23A-23F, FIGS. 24A-24C).

Substance: dextran
- increase in levels of nuclear p-CREB [1]: not significantly increased
- increase in levels of nuclear p-CREB [2]: not significantly increased
- neurites in the presence of 4-HNE (neuritic atrophy) [3]: lost neuritis
- percent of neuron death ([4]; then 2 μM Aβ42 peptide 48 h): did not decrease
- percent of neuron death ([4]; then 50 μM H2O2 24 h): did not reduce

— US11197885B2, “Collagen enhancing agent made from low acyl gellan gum, methods of making and methods of using the same” (The University of Toledo, priority 2015, dated 2021)
